According to patent US20260327240A1, “1,4-CINEOLE DERIVATIVE AND INTERMEDIATE THEREOF, HERBICIDE CONTAINING SAID DERIVATIVE AS ACTIVE INGREDIENT, METHOD FOR USING HERBICIDE, AND METHOD FOR PREPARING AGROCHEMICAL COMPOSITION” (HOKKO CHEMICAL INDUSTRY CO., LTD., priority 2023, published 2026):

Key:
Assay type in all cases: in vivo
[1] = system: Echinochloa crus-galli var. formosensis; assay: Test Example 2: herbicidal effect test by application during growth period of paddy rice; details: 7 days after sowing, 120 g per 10 ares, 14 days after application
Experimental: (§1) Herbicidal Effect Test by Application During Growth Period of Paddy Rice
(§2) Wagner pots with an area of 1/10,000 […] were filled with paddy soil, followed by addition of water and incorporation of chemical fertilizer (N:P:K=16:16:16), after which puddling was performed. After that, seeds of Echinochloa crus-galli var. formosensis, broad-leaved weeds (Lindemia pyxidaria, and Monochoria vaginalis), and Scirpus juncoides were sown at a depth of 0 cm to 1 cm, 30 seeds each. Immediately after sowing, the pots were flooded and a water depth of approximately 3 cm was maintained. Subsequent management was conducted in a glass greenhouse. Seven days after sowing, an emulsifiable concentrate prepared according to Formulation Example 5 using the compound shown below was diluted with water, and a specified amount of the diluted solution was applied by dropper. The amount of the active ingredient to be applied was equivalent to 120 g per 10 ares. The test was conducted in duplicate for each chemical concentration group, and the herbicidal effect was evaluated 14 days after chemical application using the same criteria as in Test Example 1.

Scirpus juncoides [2] = assay: as above; details: 7 days after sowing, 120 g per 10 ares, 14 days after application
Experimental: as §1, §2

Monochoria vaginalis [3] = assay: as above; details: 7 days after sowing, 120 g per 10 ares, 14 days after application
Experimental: as §1, §2

[4] = system: Echinochloa crus-galli var. formosensis; assay: Test Example 6: herbicidal effect test by application during growth period of paddy rice; details: 7 days after sowing, 7.5 g per 10 ares, 14 days after application
Experimental: as §1
as §2, with “7.5” for “120”

Echinochloa crus-galli [5] = assay: Test Example 8: herbicidal effect test by stem and leaf treatment in upland field; details: 7 days after sowing, 7.5 g per 10 ares, 14 days after application
Experimental: (§3) Herbicidal Effect Test by Stem and Leaf Treatment in Upland Field
(§4) Pots with an area of 36 cm^2 were filled with upland soil (alluvial loam), twenty seeds each of weeds of Digitaria ciliaris, Echinochloa crus-galli, Chenopodium album, and Amaranthus viridis were uniformly mixed with the top 1 cm layer of soil and the surface was lightly pressed down. Seven days after sowing, an emulsifiable concentrate prepared according to Formulation Example 5 using the compound shown below was diluted with water, and the diluted solution was sprayed onto the soil surface at a rate of 100 liters per 10 ares. The amount of the active ingredient to be applied was equivalent to 7.5 g per 10 ares. Fourteen days after chemical application, the herbicidal effect was evaluated according to the same criteria as in Test Example 1.

Digitaria ciliaris [6] = assay: as above; details: 7 days after sowing, 7.5 g per 10 ares, 14 days after application; for inhibition at 75 g/ha: Digitaria ciliaris, read-out: weed inhibition rate
Experimental: as §3, §4

Echinochloa crus-galli [7] = assay: Test Example 4: herbicidal effect test by stem and leaf treatment in upland field; details: 7 days after sowing, 120 g per 10 ares, 14 days after application
Experimental: as §3
as §4, with “120” for “7.5”

Digitaria ciliaris [8] = assay: as above; details: 7 days after sowing, 120 g per 10 ares, 14 days after application
Experimental: as §3
as §4, with “120” for “7.5”

[9] = system: Echinochloa crus-galli var. formosensis; assay: Test Example 5: herbicidal effect test by soil application in paddy rice; details: 7.5 g per 10 ares, 14 days after application
Experimental: (§5) Herbicidal Effect Test by Soil Application in Paddy Rice
as §2, with “Immediately thereafter,” for “Seven days after sowing,”, “7.5” for “120”, “ares.” for “ares. The test was conducted in duplicate for each chemical concentration group, and the herbicidal effect was evaluated 14 days after chemical application using the same criteria as in Test Example 1.”
(§6) The present test was conducted in duplicate for each chemical concentration group, and the herbicidal effect was evaluated 14 days after chemical application using the same criteria as in Test Example 1.

Echinochloa crus-galli [10] = assay: Test Example 3: herbicidal effect test by soil application in upland field; details: 1 day after sowing, 120 g per 10 ares, 14 days after application
Experimental: (§7) Herbicidal Effect Test by Soil Application in Upland Field
as §4, with “One day” for “Seven days”, “120” for “7.5”

Digitaria ciliaris [11] = assay: as above; details: 1 day after sowing, 120 g per 10 ares, 14 days after application
Experimental: as §7
as §4, with “One day” for “Seven days”, “120” for “7.5”

Echinochloa crus-galli [12] = assay: Test Example 7: herbicidal effect test by soil application in upland field; details: 1 day after sowing, 7.5 g per 10 ares, 14 days after application
Experimental: as §7
as §4, with “One day” for “Seven days”

Digitaria ciliaris [13] = assay: as above; details: 1 day after sowing, 7.5 g per 10 ares, 14 days after application
Experimental: as §7
as §4, with “One day” for “Seven days”

[14] = system: Echinochloa crus-galli var. formosensis; assay: Test Example 1: herbicidal effect test by soil application in paddy rice; details: 120 g per 10 ares, 14 days after application
Experimental: as §5
as §2, with “(Lindernia pyxidaria” for “(Lindemia pyxidaria,”, “Immediately thereafter,” for “Seven days after sowing,”, “ares.” for “ares. The test was conducted in duplicate for each chemical concentration group, and the herbicidal effect was evaluated 14 days after chemical application using the same criteria as in Test Example 1.”
(§8) The present test was conducted in duplicate for each chemical concentration group, and the weed inhibition rate (%) was determined 14 days after chemical application using the following formula (Math. 1).

Scirpus juncoides [15] = assay: as above; details: 120 g per 10 ares, 14 days after application
Experimental: as §5
as §2, with “(Lindernia pyxidaria” for “(Lindemia pyxidaria,”, “Immediately thereafter,” for “Seven days after sowing,”, “ares.” for “ares. The test was conducted in duplicate for each chemical concentration group, and the herbicidal effect was evaluated 14 days after chemical application using the same criteria as in Test Example 1.”
as §8

Monochoria vaginalis [16] = assay: as above; details: 120 g per 10 ares, 14 days after application
Experimental: as §5
as §2, with “(Lindernia pyxidaria” for “(Lindemia pyxidaria,”, “Immediately thereafter,” for “Seven days after sowing,”, “ares.” for “ares. The test was conducted in duplicate for each chemical concentration group, and the herbicidal effect was evaluated 14 days after chemical application using the same criteria as in Test Example 1.”
as §8

Monochoria vaginalis [17] = assay: Test Example 6: herbicidal effect test by application during growth period of paddy rice; details: 7 days after sowing, 7.5 g per 10 ares, 14 days after application
Experimental: as §1
as §2, with “7.5” for “120”

Scirpus juncoides [18] = assay: Test Example 5: herbicidal effect test by soil application in paddy rice; details: 7.5 g per 10 ares, 14 days after application
Experimental: as §5
as §2, with “Immediately thereafter,” for “Seven days after sowing,”, “7.5” for “120”, “ares.” for “ares. The test was conducted in duplicate for each chemical concentration group, and the herbicidal effect was evaluated 14 days after chemical application using the same criteria as in Test Example 1.”
as §6

Monochoria vaginalis [19] = assay: as above; details: 7.5 g per 10 ares, 14 days after application
Experimental: as §5
as §2, with “Immediately thereafter,” for “Seven days after sowing,”, “7.5” for “120”, “ares.” for “ares. The test was conducted in duplicate for each chemical concentration group, and the herbicidal effect was evaluated 14 days after chemical application using the same criteria as in Test Example 1.”
as §6

[20] = Echinochloa crus-galli, read-out: weed inhibition rate
[21] = Digitaria ciliaris, read-out: weed inhibition rate

CC(C)[C@]12C[C@@H](OCc3ccccc3F)[C@](C)(C[C@@H]1Cl)O2 [1-12]
≥ 80%: weed inhibition rate [1] | weed inhibition rate (Scirpus juncoides [2]) | weed inhibition rate (Monochoria vaginalis [3]) | weed inhibition rate [4] | weed inhibition rate (Echinochloa crus-galli [5]) | weed inhibition rate (Digitaria ciliaris [6]) | weed inhibition rate (Echinochloa crus-galli [7]) | weed inhibition rate (Digitaria ciliaris [8]) | weed inhibition rate [9] | weed inhibition rate (Echinochloa crus-galli [10]) | weed inhibition rate (Digitaria ciliaris [11]) | weed inhibition rate (Echinochloa crus-galli [12]) | weed inhibition rate (Digitaria ciliaris [13]) | weed inhibition rate [14] | weed inhibition rate (Scirpus juncoides [15]) | weed inhibition rate (Monochoria vaginalis [16])

CC(C)C1C[C@]2(C)O[C@@]1(C(C)C)C[C@H]2OCc1ccccc1F (stereo partly drawn) [1-133, (1S,2R,4R)-2-[(2-fluorobenzyl)oxy]-4,5-isopropyl-1-methyl-7-oxabicyclo[2.2.1]heptane]
≥ 80%: weed inhibition rate [1] | weed inhibition rate (Scirpus juncoides [2]) | weed inhibition rate (Monochoria vaginalis [3]) | weed inhibition rate [4] | weed inhibition rate (Monochoria vaginalis [17]) | weed inhibition rate (Echinochloa crus-galli [5]) | weed inhibition rate (Echinochloa crus-galli [7]) | weed inhibition rate (Digitaria ciliaris [8]) | weed inhibition rate [9] | weed inhibition rate (Scirpus juncoides [18]) | weed inhibition rate (Monochoria vaginalis [19]) | weed inhibition rate (Echinochloa crus-galli [10]) | weed inhibition rate (Digitaria ciliaris [11]) | weed inhibition rate (Echinochloa crus-galli [12]) | weed inhibition rate (Digitaria ciliaris [13]) | weed inhibition rate [14] | weed inhibition rate (Scirpus juncoides [15]) | weed inhibition rate (Monochoria vaginalis [16])

CC(C)[C@]12C[C@@H](OCc3ccccc3C(F)(F)F)[C@](C)(C[C@@H]1Br)O2 [1-700, (1S,2R,4R,5S)-5-bromo-1-methyl-4-isopropyl-2-[[2-(trifluoromethyl)phenyl]methoxy]-7-oxabicyclo[2.2.1]heptane]
≥ 80%: inhibition at 75 g/ha (Digitaria ciliaris [6])

CC(C)[C@]12C[C@@H](OCc3ccccn3)[C@](C)(C[C@@H]1I)O2 [1-785, 2-[[(1S,2R,4R,5S)-5-iodo-4-isopropyl-1-methyl-7-oxabicyclo[2.2.1]heptan-2-yl]oxymethyl]pyridine]
≥ 80%: inhibition at 1200 g/ha [1, 20] | inhibition at 1200 g/ha (Scirpus juncoides [2]; Schoenoplectiella juncoides, read-out: weed inhibition rate) | inhibition at 75 g/ha [4, 20] | inhibition at 75 g/ha (Echinochloa crus-galli [5]; [20]) | inhibition at 75 g/ha (Digitaria ciliaris [6]) | inhibition at 1200 g/ha (Echinochloa crus-galli [7]; [20]) | inhibition at 1200 g/ha (Digitaria ciliaris [8]; [21]) | inhibition at 75 g/ha ([9]; Echinochloa crus-galli, 336 h, read-out: weed inhibition rate) | inhibition at 75 g/ha (Echinochloa crus-galli [12]; [20]) | inhibition at 75 g/ha (Digitaria ciliaris [13]; [21])

CC(=O)O[C@@H]1C[C@]2(C)O[C@@]1(C(C)C)C[C@H]2OCc1ccccc1F [1-932, [(1R,2R,4S,5R)-5-[(2-fluorophenyl)methoxy]-4-methyl-1-isopropyl-7-oxabicyclo[2.2.1]heptan-2-yl]acetate]
≥ 80%: weed inhibition rate [1] | weed inhibition rate [4] | weed inhibition rate [9] | weed inhibition rate [14]

CC(C)[C@]12C[C@@H](OCc3ccccc3F)[C@](C)(C=C1OS(=O)(=O)C(F)(F)F)O2 [3-680]
≥ 80%: weed inhibition rate [1] | weed inhibition rate (Scirpus juncoides [2]) | weed inhibition rate [4] | weed inhibition rate (Echinochloa crus-galli [5]) | weed inhibition rate (Digitaria ciliaris [6]) | weed inhibition rate (Echinochloa crus-galli [7]) | weed inhibition rate (Digitaria ciliaris [8]) | weed inhibition rate [9] | weed inhibition rate (Echinochloa crus-galli [10]) | weed inhibition rate (Digitaria ciliaris [11]) | weed inhibition rate (Echinochloa crus-galli [12]) | weed inhibition rate (Digitaria ciliaris [13]) | weed inhibition rate [14] | weed inhibition rate (Scirpus juncoides [15])
